Laboratory results from US9963684B2 (priority 2014, dated 2018).
Values joined by “and” are separate entries in the source; they are usually repeats but may differ in a detail not shown here. Identical values can stand only once. Like-named read-outs stand apart in the source and are kept apart here.

Test system: formaldehyde dehydrogenase
Type: biochemical, Burkholderia multivorans
[1] = metal ion 1 mM in enzyme reaction solution
[2] = metal ion 5 mM in enzyme reaction solution

| Structure (SMILES) | Relative activity (%) [1] [%] | Relative activity (%) [2] [%] | Relative activity (%) | enzyme activity in the presence of metal ion versus without it (5 frill Mg^2+) [times] |
| --- | --- | --- | --- | --- |
| [Ba+2].[Cl-].[Cl-] [BaCl2] | 98.55 | 115.1 |  |  |
| [Ca+2].[Cl-].[Cl-] [CaCl2] | 50.67 | 75.96 |  |  |
| [Cl-].[Cl-].[Co+2] [CoCl2] |  |  | 58.39% and 72.60% |  |
| O=S(=O)([O-])[O-].[Cu+2] [CuSO4] | 124.3 | 91.30 |  |  |
| [Cl-].[K+] [KCl] | 104.0 | 94.49 |  |  |
| [Cl-].[Cl-].[Mg+2] [MgCl2] | 147.8 | 269.6 |  | 2.7 |
| [Cl][Mn][Cl] [MnCl2] | 62.32 | 111.6 |  |  |
| [Cl-].[Cl-].[Zn+2] [ZnCl2] | 63.99 | 192.2 |  |  |
